Measured values published in ChEMBL document CHEMBL3352749, “An iridoid glucoside and the related aglycones from Cornus florida” (J Nat Prod, 2014).
Activity calls are given as the source filed them.

Assays:
[1] = biological target: T1, Peroxisome proliferator-activated receptor gamma (Homo sapiens) (UniProt P37231); assay: Agonist activity at PPARgamma (unknown origin)
T1 sequence (whole entry): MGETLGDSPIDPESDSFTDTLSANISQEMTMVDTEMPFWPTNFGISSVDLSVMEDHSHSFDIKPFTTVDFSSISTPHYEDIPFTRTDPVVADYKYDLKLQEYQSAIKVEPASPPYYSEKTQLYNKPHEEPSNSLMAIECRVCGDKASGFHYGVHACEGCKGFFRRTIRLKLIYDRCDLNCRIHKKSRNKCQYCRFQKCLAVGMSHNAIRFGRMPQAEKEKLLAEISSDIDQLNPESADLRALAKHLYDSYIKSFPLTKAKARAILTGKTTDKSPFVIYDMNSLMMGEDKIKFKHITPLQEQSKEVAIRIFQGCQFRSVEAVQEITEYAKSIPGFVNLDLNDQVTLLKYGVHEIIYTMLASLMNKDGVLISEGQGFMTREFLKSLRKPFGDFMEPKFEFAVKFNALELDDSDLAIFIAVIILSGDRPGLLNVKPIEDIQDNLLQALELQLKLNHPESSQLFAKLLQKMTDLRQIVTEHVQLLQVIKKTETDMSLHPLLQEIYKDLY

[2] = tested on: BG02; assay: Growth inhibition of human BG02 cells up to 100 uM; format: functional, cell-based
[3] = tested on: MCF7; assay: Growth inhibition of human MCF7 cells up to 100 uM; format: functional, cell-based
[4] = tested on: MDA-MB-231; assay: Growth inhibition of human MDA-MB-231 cells up to 100 uM; format: functional, cell-based

Measured: Activity

C[C@H]1C[C@@H]2OC(=O)[C@@H]3C(=O)OC[C@H]1[C@@H]32
inactive: all assays above

C[C@H]1C[C@@H]2OC(=O)C[C@@H]2[C@@H]1CO
inactive: all assays above

COC(=O)[C@H]1C(=O)O[C@H]2C[C@H](C)[C@@H](CO[C@@H]3O[C@H](CO)[C@@H](O)[C@H](O)[C@H]3O)[C@@H]12
inactive: [2] | [3] | [4]

COC(=O)[C@@H]1C(=O)OC[C@H]2[C@@H]1[C@H](O)C[C@@H]2C
inactive: all assays above

C[C@H]1C[C@@H](O)[C@@H]2CC(=O)OC[C@@H]21
inactive: [1] | [2] | [3]
